From US8513292B2, “Compositions and methods for the treatment of cancer” (ArQule, Inc., priority 2007, dated 2013) come the findings set out here.

Where a SMILES comes first, the peptide text is derived from it. The star is where a group is joined. Cbz = O=C(OCc1ccccc1)*; CH2F = FC*

The test system of data set [1] is HT29 cells. Kind of data set: MTS assay. Format: cell-based. The note with it: Homo sapiens, HT-29, compound for 24 hours, then drug-free medium for additional 48 hours, MTS readout. Here is the method:
HT29 cells were seeded in 96-well plates at 1,800 cells/well overnight in medium with 10% FBS. The next day, cells were treated with increasing concentrations of compounds for 24 hours at 37° C. After the treatments, the compound-containing medium was removed, cells were washed twice with PBS, and incubated in drug-free medium containing 10% FBS for an additional 48 hours. After addition of MTS and PMS for 4 hours at concentrations of 2 mg/mL and 0.92 mg/mL, respectively, the results were quantitated by spectrophotometry at λ=490 nm and IC50 for each compound was determined
Background: Tetrazolium assays rely on reduction of a dye to a coloured formazan, in cell work by metabolically active cells.

Data set [2] deals with T1, Recombinant unphosphorylated c-Met comprising residues 1038-1346 (Homo sapiens, UniProt P08581).
T1 construct: The DNA fragment encoding the kinase domain (1038-1346) was inserted into Novagen vector pet28a; six-histidine tag (N); made in house; host or cells: E. coli BL21(DE3)RIL
Kind of data set: c-Met p33 kinase assay (33P-ATP, IGF-1 Rtide substrate). It is filed as biochemical. Conditions: 15 minutes preincubation, 100 μM ATP, 30 minutes reaction. From the text:
cDNA of full-length c-Met purchased from Origen Technologies was used as template for PCR amplification. The DNA fragment encoding the kinase domain (1038-1346) was inserted into Novagen vector pet28a between Nco1 and Sal1 sites. The primers were designed to contain a six-histidine tag to the N-terminus. In order to express dephosphorylated c-Met kinase protein, a tyrosine phosphatase PTP1B (1-283) was sequentially ligated into the made construct between SalI and Nod sites. A second ribosome binding site was incorporated in the PTP1B primer after the SalI site. The N-terminal His-tagged proteins were expressed in Circlegrow broth (Q-Biogen). The transformed E. Coli cell line BL21(DE3)RIL (Stratagene) was cultured to OD=0.8 at 37° C. and induced with 0.3 mM of IPTG for overnight at 12° C. The co-expressed protein was purified by metal-chelation chromatography followed by anion and cation columns. In brief, 4 liters of cells were lysed by sonication in 140 ml buffer containing 20 mM MOPS pH=6.5, 200 mM NaCl, 7.5% glycerol, 0.1% Igepal, supplied with 1 mM PMSF. The supernatant was obtained by centrifugation at 50,000 g for 30 minutes and followed by incubation with 8 mL of Ni-NTA His Bind resin (Novagen) at 4° C. for one hour. A second step 50 mL wash buffer (with 100 mM NaCl and 5 mM imidazole) was applied after initial wash with the lysis buffer. Protein was eluted by 200 mM imidazole pH=8.5, 100 mM NaCl and 7.5% glycerol and directly cleared by passing 10 mL QFF column. The salt concentration and the pH value of the protein flow through were adjusted to 50 mM and 7.5 by dilution, and then loaded to 1 mL SP FF column. The protein was further gel-filtered in an equilibrium buffer of 20 mM TrisHCl pH=8.5, 150 mM NaCl, 7.5% glycerol and 2 mM DTT. The monomeric unphosphorylated c-Met protein was concentrated to 30 mg/mL for storage at −80° C.
Recombinant unphosphorylated c-Met comprising residues 1038-1346 (12.5 ng) was pre-incubated with increasing concentrations of compounds for 15 minutes at room temperature. […]

The subject of data set [3] is HT29 cells. Kind of data set: Cell death by Annexin V-Fluos staining after siRNA transfection, high content imaging. Format: cell-based. Conditions: increasing concentrations of caspase inhibitor for 1 additional day after transfection. Here is the method:
Exponentially growing HT29 cells were plated in black 96-well plates at 5,000 cells/well overnight in medium with 10% FBS. The next day, cells were transiently transfected for 2 days using DharmaFECT 4 reagent with a pool of four met-specific 21-nucleotide RNA oligonucleotides forming a 19-bp duplex core with 2-nucleotide 3′ overhang in combination (Dharmacon, Inc., Lafayette, Colo.). Transfection of gapdh siRNA (Dharmacon, Inc.) and of a non-targeting siRNA under the same conditions was done in parallel as controls (Dharmacon, Inc.). Cells were then incubated in the absence or the presence of increasing concentrations of ZvAD-FMK, an irreversible caspase inhibitor for 1 additional day. Cells were incubated for at least 10 minutes in a labeling solution (10 mM HEPES, 140 mM NaCl and 6 mM CaCl2) containing 2 μg/ml Hoechst 33342 (blue channel; Molecular Probes/Invitrogen Corp., Natick, Mass.), 500 times diluted Annexin V-Fluos (green channel; Roche Applied Science, Indianapolis, Ind.) and 1 μg/ml propidium iodide (red channel; Roche Applied Science). High content image acquisition and analysis were carried out using a Beckman Coulter IC100 Cytometer. The program was set to take four images per well. […] Images were processed and numbers of positive cells for each channel and each condition were determined using Cytoshop 2.1 software (Beckman Coulter, Inc.). […]

T1 sequence (P08581 1038-1346): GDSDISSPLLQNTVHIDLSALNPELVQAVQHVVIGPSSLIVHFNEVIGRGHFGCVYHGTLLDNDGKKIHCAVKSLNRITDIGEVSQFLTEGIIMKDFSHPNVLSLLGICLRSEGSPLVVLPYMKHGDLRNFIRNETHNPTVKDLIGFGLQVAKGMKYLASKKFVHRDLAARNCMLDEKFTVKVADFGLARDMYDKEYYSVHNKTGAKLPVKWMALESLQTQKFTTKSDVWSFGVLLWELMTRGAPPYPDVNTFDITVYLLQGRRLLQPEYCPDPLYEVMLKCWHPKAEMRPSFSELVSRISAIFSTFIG

Usually IC50 stands for the midpoint of a concentration-inhibition curve. As usually defined, the melting point is the temperature of the solid-liquid transition. In turn, `O=C1NC(=O)[C@@H](c2c[nH]c3ccccc23)[C@@H]1Cc1cn2c3c(cccc13)CCC2` (racemic) [Example 6, (±)-trans-3-(5,6-dihydro-4H-pyrrolo[3,2,1-ij]quinolin-1-ylmethyl)-4-(1H-indol-3-yl)-pyrrolidine-2,5-dione] showed a melting point of 215 to 218 °C. For the same molecule, the IC50 in data set [1] lay in the range of 1000 to 10000 nM.
As to `O=C1NC(=O)[C@H](c2c[nH]c3ccccc23)[C@@H]1C(=O)c1cn2c3c(cccc13)CCC2` (racemic) [Example 9, (±)-cis-3-(5,6-dihydro-4H-pyrrolo[3,2,1-ij]quinoline-1-carbonyl)-4-(1H-indol-3-yl)-pyrrolidine-2,5-dione], the melting point lay in the range of 283 to 285 °C. The IC50 in data set [1] was 1000 to 10000 nM. In addition, the IC50 in data set [2] was no less than 10000 nM.
Taken in the same sequence, the figures for `O=C1NC(=O)[C@@H](c2cc3c4c(ccn4CCC3)c2)[C@H]1c1c[nH]c2ccccc12` (racemic) [Example 16] were 141 to 145 °C, no more than 1000 nM and no less than 10000 nM.
As to `O=C1NC(=O)[C@@H](c2c[nH]c3ccc(Br)cc23)[C@@H]1c1cc2c3c(ccn3CCC2)c1` (racemic) [Example 19, (±)-trans-3-(5-bromo-1H-indol-3-yl)-4-(5,6-dihydro-4H-pyrrolo[3,2,1-ij]quinolin-8-yl)-pyrrolidine-2,5-dione], the melting point was in the range of 195 to 200 °C. In data set [1], the IC50 was no more than 1000 nM.
For `O=C1NC(=O)[C@@H](c2ccccc2Cl)[C@@H]1c1cc2c3c(ccn3CCC2)c1` (racemic) [Example 22, (±)-trans-3-(2-chloro-phenyl)-4-(5,6-dihydro-4H-pyrrolo[3,2,1-ij]quinolin-8-yl)-pyrrolidine-2,5-dione], in that order: 209 to 212 °C and no more than 1000 nM.
Take `COc1cccc([C@@H]2C(=O)NC(=O)[C@H]2c2cc3c4c(ccn4CCC3)c2)c1` (racemic) [Example 25, (±)-trans-3-(5,6-dihydro-4H-pyrrolo[3,2,1-ij]quinolin-8-yl)-4-(3-methoxy-phenyl)-pyrrolidine-2,5-dione]: the half-inhibitory concentration (IC50) in data set [1] is no more than 1000 nM.
`O=C1NC(=O)[C@@H](c2cn3c4c(cccc24)CC3)[C@@H]1c1c[nH]c2ccccc12` (racemic) [Example 33, (±)-trans-3-(4,5-dihydro-pyrrolo[3,2,1-hi]indol-1-yl)-4-(1H-indol-3-yl)-pyrrolidine-2,5-dione] registered a melting point of 144 to 148 °C. Also, the IC50 in data set [1] is no more than 1000 nM. For the same molecule, in data set [2], the IC50 was no less than 10000 nM.
Consider `COC(=O)C[C@H](NC(=O)[C@H](C)NC(=O)[C@@H](NC(=O)OCc1ccccc1)C(C)C)C(=O)CF` [ZvAD-FMK] (Cbz-Val-Ala-Asp(OMe)-CH2F), for which, in data set [3], the “levels of cell death in met siRNA transfected cells” value is “decreased the levels of cell death”.
